Source: US20080311039A1, “Therapeutic and Prognostic Factor Yy1 in Human Cancer” (The Regents of the University of California, priority 2004, published 2008)
Where a name gives a salt, the structure may show the parent alone.

Experiments:
YY1 [1] = assay: YY1 expression in PC-3 cells
YY1 [2] = assay: YY1 activity by luciferase reporter assay in PC-3
DR5 promoter = assay: DR5 luciferase reporter system (pDR5 wild type) in PC3 cells; type: cell-based, human; details: PC3 transfected with pDR5, drug treatment vs basal
Excerpt: Another reporter gene system of use in the present invention utilized firefly luciferase luminescence as the reporter signal. In this reporter system, a wild-type DR5 promoter is operably linked to a luciferase reporter sequence. The wild-type DR5YY1 responsive site can be used in parallel with a DR5 promoter having a non-functional YY1 responsive site, for example, a 5′-deletion mutant-605 that includes the YY1 binding site (pDR5/-605) (described in Yoshida, et al, (2001) FEBS Letters, 507:381-385), or a DR5 promoter sequence missing the YY1 binding sequence (pDR5-YY1 mutant) (see, Huerta-Yepez, et al., AACR Abstract, 2005).
However, many drug-resistant tumor cells are also resistant to TRAIL and such tumors require sensitization to reverse TRAIL resistance. […] This hypothesis was tested by examining a luciferase reporter system (pDR5 wild type) and plasmids in which the YY1-binding site was either deleted (pDR5/-605) and/or mutated (pDR5-YY1 mutant).

PC-3 cells [3] = assay: Sensitization to TRAIL-induced apoptosis, prostate carcinoma cells; type: cell-based, human; details: 500 μM, 1000 μM, 18 h
Procedure: (§1) Yin-Yang 1 (YY1) is a transcription factor that may activate or repress gene expression. […] In this study, we examined the direct S-nitrosylation of YY1 using the human prostate cancer cell line, PC-3, as model. Culture cells were incubated for 18 h in the presence of various concentrations of the NO donor DETANONOate (500 μM, 1000 μM) that sensitized PC-3 to Fas ligand- and TRAIL-mediated apoptosis. Subsequently, we analyzed for S-nitrosylation of YY1 by various methods. […] Noteworthy, significant constitutive S-nitrosylated proteins were detected. Further, using double immunofluorescence staining microscopy, we co-localized the presence of S-nitrosylated proteins and YY1.

PC-3 cells [4] = details: TRAIL-resistant human prostate carcinoma (CaP) cell lines; Huerta-Yepez et al. 2004; cited from earlier work
B-NHL cell lines [5] = assay: Sensitization to CH-11 (FasL agonist mAb)-induced apoptosis in B-NHL cell lines; type: cell-based
Excerpt: (§2) We have recently reported that treatment of B-Non-Hodgkin's Lymphoma (NHL) cell lines with rituximab (anti-CD20 antibody) sensitizes the tumor cells to both chemotherapy and Fas-induced apoptosis (Jazirehi and Bonavida, 2005, Oncogene, 24:2121-2145). This study investigated the underlying molecular mechanism of rituximab-mediated reversal of resistance. Treatment of B-NHL cell lines inhibited the constitutively activated NF-κB. Cells expressing dominant active IκB or treated with NF-κB specific inhibitors were sensitized to both drugs and FasL agonist mAb (CH-11)-induced apoptosis. Downregulation of Bcl-xL expression via inhibition of NF-κB activity correlated with chemosensitivity. […] The role of Bcl-xL expression in the regulation of Fas resistance was not apparent as Ramos HA-Bcl cells were as sensitive as the wild type cells to CH-11-induced apoptosis. […] These findings show two complementary mechanisms underlying the chemo-sensitization and immuno-sensitization of B NHL cells by rituximab via inhibition of NF-κB. The regulation of chemoresistance by NF-B is mediated via Bcl-xL expression whereas the regulation of Fas resistance by NF-B is mediated via YY1 expression and activity.
(§3) We have reported that rituximab triggers and inhibits anti-apoptotic gene products in NHL B-cell lines resulting in sensitization to drug-induced apoptosis (Alas et al., Clin. Cancer Res. 8:836, 2001; Jazirehi et al., Mol. Cancer. Therapy 2:1183, 2003; Vega et al., Oncogene 23:3530, 2004). This study investigated whether rituximab also modifies intracellular signaling pathways resulting in the sensitization of NHL cells to Fas-induced apoptosis. […] Downregulation of YY1 expression was the result of rituximab-induced inhibition of both the p38MAPK signaling pathway and constitutive NF-κB activity. The dual roles of NF-κB and YY1 in the regulation of Fas expression were corroborated by the use of a dominant-active inhibitor of NF-κB (Ramos IκB-ER mutant) and YY1 siRNA, respectively. […]

NF-κB [6] = assay: NF-κB DNA-binding activity in PC-3 cells; type: cell-based, human
DR5 = DR5 expression in PC-3 cells by flow, RT-PCR and western; type: cell-based, human
YY1 [7] = target: T1, YY1 (Homo sapiens, UniProt P25490); assay: YY1 DNA-binding activity in PC-3 cells; type: cell-based; set-up: endogenous in cells; host or cells: PC-3
Fas = Fas expression in B-NHL cell lines (flow cytometry, RT-PCR, Western); type: cell-based
Excerpt: as §2, §3

PC-3 cells [8] = assay: Sensitization to Fas ligand-mediated apoptosis, PC-3; type: cell-based, human; details: 500 μM, 1000 μM, 18 h
Procedure: as §1

YY1 [9] = target: T1, YY1; assay: YY1 activity in B-NHL cell lines; type: cell-based; set-up: endogenous in cells; host or cells: 2F7, Ramos, Raji; rituximab-resistant Ramos RR1
Excerpt: as §2, §3

PC-3 cells [10] = assay: General S-nitrosylation of proteins in PC-3 by immunohistochemistry; type: cell-based, human; details: PC-3, after treatment with NO
Procedure: as §1

YY1 [11] = assay: YY1 expression in rituximab-resistant Ramos RR1 cells; type: cell-based; details: alone or in combination with NF-κB inhibitors
Procedure: Ramos and Ramos RR1 cells were treated with vincristine, VP-16, CDDP, and ADR, and the NF-κB inhibitors Bortezomib and DHMEQ.

YY1 [12] = assay: YY1 expression in NHL B-cell lines; type: cell-based; details: NHL B cell lines (Example 9)
Excerpt: (§4) We have reported that rituximab triggers and inhibits anti-apoptotic gene products in NHL B-cell lines resulting in sensitization to drug-induced apoptosis (Alas et al., Clin. Cancer Res. 8:836, 2001; Jazirehi et al., Mol. Cancer. Therapy 2:1183, 2003; Vega et al., Oncogene 23:3530, 2004). This study investigated whether rituximab also modifies intracellular signaling pathways resulting in the sensitization of NHL cells to Fas-induced apoptosis. […] Downregulation of YY1 expression was the result of rituximab-induced inhibition of both the p38MAPK signaling pathway and constitutive NF-κB activity. The dual roles of NF-κB and YY1 in the regulation of Fas expression were corroborated by the use of a dominant-active inhibitor of NF-κB (Ramos IκB-ER mutant) and YY1 siRNA, respectively. The role of rituximab-mediated inhibition of the p38MAPK/NF-κB/YY1 pathways, which result in both Fas upregulation and sensitization to CH11-induced apoptosis, was corroborated by the use of specific chemical inhibitors directed at various targets of these pathways. […] Altogether, these findings provide a novel mechanism of rituximab-mediated signaling by inhibiting the p38MAPK/NF-κB/YY1 pathways and resulting in the sensitization of B NHL to Fas-induced apoptosis. […]

Ramos cells [13] = details: B-NHL cell lines; Jazirehi and Bonavida 2005; cited from earlier work
NF-κB [14] = assay: Constitutive NF-κB activity in NHL cell lines; type: cell-based; details: NHL B cell lines
Excerpt: as §4

Ramos cells [15] = assay: Chemosensitization to drug-induced apoptosis in Ramos B-NHL cells and variants; type: cell-based
Excerpt: as §2

[16] = test system: p38MAPK signaling pathway; assay: p38MAPK signaling pathway in NHL cell lines; type: cell-based; details: NHL B cell lines
Excerpt: as §4

B-NHL cell lines [17] = details: Jazirehi and Bonavida 2005; cited from earlier work

T1 sequence (P25490 whole entry): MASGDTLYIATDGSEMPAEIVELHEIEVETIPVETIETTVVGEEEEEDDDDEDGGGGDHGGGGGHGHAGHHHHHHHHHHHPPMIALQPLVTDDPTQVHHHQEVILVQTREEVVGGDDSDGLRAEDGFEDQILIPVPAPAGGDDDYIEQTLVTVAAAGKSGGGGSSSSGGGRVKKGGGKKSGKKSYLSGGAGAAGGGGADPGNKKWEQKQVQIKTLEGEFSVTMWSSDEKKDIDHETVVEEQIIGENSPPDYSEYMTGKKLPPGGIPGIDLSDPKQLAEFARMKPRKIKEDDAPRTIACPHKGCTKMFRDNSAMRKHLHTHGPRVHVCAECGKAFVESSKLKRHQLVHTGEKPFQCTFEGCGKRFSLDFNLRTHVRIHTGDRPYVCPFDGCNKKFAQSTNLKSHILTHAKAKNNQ

With COc1cc2c(cc1O)CC[C@@H]1[C@@H]2CC[C@]2(C)[C@@H](O)CC[C@@H]12 [2-methoxyestradiol, 2-Methoxyestradiol] the YY1 expression (YY1 [1]) was “marked reduction” and the “YY1 activity (luciferase reporter assay)” value (YY1 [2]) was “marked reduction”.

For COc1cccc2c1C(=O)c1c(O)c3c(c(O)c1C2=O)C[C@@](O)(C(=O)CO)C[C@@H]3O[C@H]1C[C@H](N)[C@H](O)[C@H](C)O1 [ADR, doxorubicin hydrochloride], the luciferase activity (DR5 promoter) was “significantly augmented luciferase activity”.

For [NH2][Pt]([NH2])([Cl])[Cl] [CDDP, cisplatin], the luciferase activity (DR5 promoter) was “significantly augmented luciferase activity”.

For NCCN(CCN)/[N+]([O-])=N/O [DETANONOate, 3,3-bis(aminoethyl)-1-hydroxy-2-oxo-*1-triazene], the “sensitization to TRAIL-mediated apoptosis” value (PC-3 cells [3]) is listed as “sensitized”, the “sensitization of TRAIL-resistant CaP cell lines” value (PC-3 cells [4]) is listed as “can be sensitized” and the “sensitization to CH-11-induced apoptosis” value (B-NHL cell lines [5]; B-NHL cell lines (Example 6)) is listed as “sensitization to CH-11-induced apoptosis”. The YY1 expression (YY1 [1]) was “inhibited YY1 expression”, the “NF-κB DNA-binding activity” value (NF-κB [6]) was “inhibited” and the DR5 expression (DR5) was “significant upregulation of DR5 expression”. The “YY1 DNA-binding activity” value (YY1 [7]) was “inhibited”, the Fas expression (Fas; B-NHL cell lines (Example 6)) was “upregulation of Fas expression” and the “sensitization to Fas ligand-mediated apoptosis” value (PC-3 cells [8]) was “sensitized”. For the same compound, the YY1 activity (YY1 [9]; B-NHL cell lines (Example 6)) was “Inhibition of YY1 activity”.

With [N]=O [NO, nitric oxide] the “general S-nitrosylation of proteins” value (PC-3 cells [10]) was “increased”.

In the case of CC[C@]1(O)C[C@H]2CN(CCc3c([nH]c4ccccc34)[C@@](C(=O)OC)(c3cc4c(cc3OC)N(C=O)[C@H]3[C@@](O)(C(=O)OC)[C@H](OC(C)=O)[C@]5(CC)C=CCN6CC[C@]43[C@@H]65)C2)C1 [vincristine], the YY1 expression (YY1 [11]) is reported as “significantly abrogated or diminished YY1 expression”.

In the case of rituximab: anti-CD20 antibody, the YY1 expression (YY1 [12]) is listed as “inhibited”, the sensitization to chemotherapy (Ramos cells [13]) is listed as “sensitizes” and the “sensitization to CH-11-induced apoptosis” value (B-NHL cell lines [5]; 2F7, Ramos and Raji, 20 μg/ml) is listed as “sensitized the cells to CH-11 (FasL agonist mAb)-induced apoptosis and synergy was achieved”. The “sensitization to CH-11-induced apoptosis” value (B-NHL cell lines [5]; B-NHL cell lines (Example 6)) was “sensitization to CH-11-induced apoptosis”, the “constitutive NF-κB activity” value (NF-κB [14]) was “inhibition” and the “sensitization to drug-induced apoptosis” value (Ramos cells [15]; Bcl-xL overexpressing Ramos HA-BclxL cells) was “not sensitized”. The chemosensitization (Ramos cells [15]; rituximab-resistant Ramos RR1 cells) was “cannot be chemosensitized”, the p38MAPK signaling pathway [16] was “inhibition” and the “sensitization to Fas-induced apoptosis” value (B-NHL cell lines [17]) was “sensitizes”. For the same compound, the Fas expression (Fas; B-NHL cell lines (Example 6)) was “upregulation of Fas expression”, the Fas expression (Fas; NHL cell lines, as early as 6 h post treatment, flow cytometry, RT-PCR, Western) was “up-regulated” and the YY1 activity (YY1 [9]; B-NHL cell lines (Example 6)) was “Inhibition of YY1 activity”. The YY1 activity (YY1 [9]; NHL B cell lines (Example 9)) was “inhibited”.
